Results reported in the supplement of paper PMC13380429.

Key:
Settings in all cases: 72 h
[1] = test system: Caco-2; test: cell viability relative to DMSO; higher = less toxic
[2] = test system: Calu-3; test: as above
[3] = test system: HepG2; test: as above
[4] = test system: U2OS; test: as above
[5] = test system: Vero E6; test: as above
[6] = test system: Caco-2; test: relative viability EC50 (midpoint between 100% and the lowest measured viability); higher = less toxic
[7] = test system: Calu-3; test: as above
[8] = test system: HepG2; test: as above
[9] = test system: U2OS; test: as above
[10] = test system: Vero E6; test: as above
[11] = test system: Caco-2; test: drug sensitivity score (DSS) for viability; higher = more toxic; extreme values may be limits of the assay
[12] = test system: Calu-3; test: as above
[13] = test system: HepG2; test: as above
[14] = test system: U2OS; test: as above
[15] = test system: Vero E6; test: as above

O=S(=O)(/N=C/c1c(O)ccc2ccccc12)c1cccs1
cell viability ([1]; 1 nM): 102% | cell viability ([1]; 10 nM): 95.8% | cell viability ([1]; 100 nM): 97.4% | cell viability ([1]; 1000 nM): 95.9% | cell viability ([1]; 10000 nM): 103% | cell viability ([2]; 1 nM): 91.3% | cell viability ([2]; 10 nM): 99.3% | cell viability ([2]; 100 nM): 99.8% | cell viability ([2]; 1000 nM): 104% | cell viability ([2]; 10000 nM): 100% | cell viability ([3]; 1 nM): 100% | cell viability ([3]; 10 nM): 120% | cell viability ([3]; 100 nM): 96.8% | cell viability ([3]; 1000 nM): 109% | cell viability ([3]; 10000 nM): 99.9% | cell viability ([4]; 1 nM): 103% | cell viability ([4]; 10 nM): 100% | cell viability ([4]; 100 nM): 98.9% | cell viability ([4]; 1000 nM): 99.5% | cell viability ([4]; 10000 nM): 103% | cell viability ([5]; 1 nM): 99.9% | cell viability ([5]; 10 nM): 102% | cell viability ([5]; 100 nM): 100% | cell viability ([5]; 1000 nM): 106% | cell viability ([5]; 10000 nM): 94.5% | relative viability EC50 [6]: > 10 µM | relative viability EC50 [7]: > 10 µM | relative viability EC50 [8]: > 10 µM | relative viability EC50 [9]: > 10 µM | relative viability EC50 [10]: > 10 µM | drug sensitivity score [11]: 0 | drug sensitivity score [12]: 0 | drug sensitivity score [13]: 0 | drug sensitivity score [14]: 0 | drug sensitivity score [15]: 0

CN1[C@@H]2CC[C@H]1C[C@@H](OC(c1ccc(F)cc1)c1ccc(F)cc1)C2 [3-alpha-bis-(4-fluorophenyl)-methoxytropane]
cell viability ([1]; 1 nM): 95.5% | cell viability ([1]; 10 nM): 90.9% | cell viability ([1]; 100 nM): 92.6% | cell viability ([1]; 1000 nM): 102% | cell viability ([1]; 10000 nM): 102% | cell viability ([2]; 1 nM): 109% | cell viability ([2]; 10 nM): 106% | cell viability ([2]; 100 nM): 99.5% | cell viability ([2]; 1000 nM): 126% | cell viability ([2]; 10000 nM): 86.5% | cell viability ([3]; 1 nM): 102% | cell viability ([3]; 10 nM): 96.3% | cell viability ([3]; 100 nM): 92% | cell viability ([3]; 1000 nM): 93.6% | cell viability ([3]; 10000 nM): 74.1% | cell viability ([4]; 1 nM): 102% | cell viability ([4]; 10 nM): 96.1% | cell viability ([4]; 100 nM): 101% | cell viability ([4]; 1000 nM): 96.8% | cell viability ([4]; 10000 nM): 93.1% | cell viability ([5]; 1 nM): 102% | cell viability ([5]; 10 nM): 103% | cell viability ([5]; 100 nM): 100% | cell viability ([5]; 1000 nM): 97.9% | cell viability ([5]; 10000 nM): 86.1% | relative viability EC50 [6]: > 10 µM | relative viability EC50 [7]: > 10 µM | relative viability EC50 [9]: > 10 µM | relative viability EC50 [10]: > 10 µM | drug sensitivity score [11]: 0 | drug sensitivity score [12]: 0 | drug sensitivity score [13]: 1.6 | drug sensitivity score [14]: 0 | drug sensitivity score [15]: 0.3

COc1ccc(Cc2nc(O)c3c(C)nc([C@@H](CCCc4ccccc4)[C@@H](C)O)n3n2)cc1OC [BAY-60-7550]
cell viability ([1]; 1 nM): 95.7% | cell viability ([1]; 10 nM): 101% | cell viability ([1]; 100 nM): 95.5% | cell viability ([1]; 1000 nM): 92.4% | cell viability ([1]; 10000 nM): 93.1% | cell viability ([2]; 1 nM): 103% | cell viability ([2]; 10 nM): 100% | cell viability ([2]; 100 nM): 118% | cell viability ([2]; 1000 nM): 96.6% | cell viability ([2]; 10000 nM): 101% | cell viability ([4]; 1 nM): 101% | cell viability ([4]; 10 nM): 106% | cell viability ([4]; 100 nM): 101% | cell viability ([4]; 1000 nM): 103% | cell viability ([4]; 10000 nM): 94.6% | cell viability ([5]; 1 nM): 103% | cell viability ([5]; 10 nM): 105% | cell viability ([5]; 100 nM): 98.5% | cell viability ([5]; 1000 nM): 98.1% | cell viability ([5]; 10000 nM): 95.2% | relative viability EC50 [6]: > 10 µM | relative viability EC50 [7]: > 10 µM | relative viability EC50 [9]: > 10 µM | relative viability EC50 [10]: > 10 µM | drug sensitivity score [11]: 0 | drug sensitivity score [12]: 0 | drug sensitivity score [14]: 0 | drug sensitivity score [15]: 0

O=C(O)/C=C/c1ccc(-c2ccc(O)c(C34CC5CC(CC(C5)C3)C4)c2)cc1 [adarotene]
cell viability ([1]; 1 nM): 87.5% | cell viability ([1]; 10 nM): 96.7% | cell viability ([1]; 100 nM): 96.8% | cell viability ([1]; 1000 nM): 38% | cell viability ([1]; 10000 nM): 35.3% | cell viability ([2]; 1 nM): 96.9% | cell viability ([2]; 10 nM): 103% | cell viability ([2]; 100 nM): 98.4% | cell viability ([2]; 1000 nM): 56.5% | cell viability ([2]; 10000 nM): 24.4% | cell viability ([3]; 1 nM): 97.9% | cell viability ([3]; 10 nM): 94.6% | cell viability ([3]; 100 nM): 95.7% | cell viability ([3]; 1000 nM): 29.1% | cell viability ([3]; 10000 nM): 27.1% | cell viability ([4]; 1 nM): 93.9% | cell viability ([4]; 10 nM): 98.5% | cell viability ([4]; 100 nM): 101% | cell viability ([4]; 1000 nM): 14.5% | cell viability ([4]; 10000 nM): 11.8% | cell viability ([5]; 1 nM): 94% | cell viability ([5]; 10 nM): 104% | cell viability ([5]; 100 nM): 102% | cell viability ([5]; 1000 nM): 53.4% | cell viability ([5]; 10000 nM): 54.4% | relative viability EC50 [6]: 0.306 µM | relative viability EC50 [7]: 0.854 µM | relative viability EC50 [8]: 0.285 µM | relative viability EC50 [9]: 0.347 µM | drug sensitivity score [11]: 12 | drug sensitivity score [12]: 9.4 | drug sensitivity score [13]: 13.7 | drug sensitivity score [14]: 15.5 | drug sensitivity score [15]: 8.3

CC(C)[C@H](CO)Nc1nc(Nc2cc(N)cc(Cl)c2)c2ncn(C(C)C)c2n1 [aminopurvalanol-a]
cell viability ([1]; 1 nM): 101% | cell viability ([1]; 10 nM): 97% | cell viability ([1]; 100 nM): 98.5% | cell viability ([1]; 1000 nM): 100% | cell viability ([1]; 10000 nM): 38.2% | cell viability ([2]; 1 nM): 98.4% | cell viability ([2]; 10 nM): 87.7% | cell viability ([2]; 100 nM): 101% | cell viability ([2]; 1000 nM): 99.3% | cell viability ([2]; 10000 nM): 47% | cell viability ([3]; 1 nM): 101% | cell viability ([3]; 10 nM): 99.3% | cell viability ([3]; 100 nM): 93.8% | cell viability ([3]; 1000 nM): 105% | cell viability ([3]; 10000 nM): 34.6% | cell viability ([4]; 1 nM): 94% | cell viability ([4]; 10 nM): 99.7% | cell viability ([4]; 100 nM): 101% | cell viability ([4]; 1000 nM): 96.5% | cell viability ([4]; 10000 nM): 34% | cell viability ([5]; 1 nM): 99.7% | cell viability ([5]; 10 nM): 102% | cell viability ([5]; 100 nM): 96.9% | cell viability ([5]; 1000 nM): 95.3% | cell viability ([5]; 10000 nM): 53.3% | relative viability EC50 [6]: 3.2 µM | relative viability EC50 [7]: 3.07 µM | relative viability EC50 [8]: 3.54 µM | relative viability EC50 [9]: 2.75 µM | drug sensitivity score [11]: 3.3 | drug sensitivity score [12]: 2.9 | drug sensitivity score [13]: 3.2 | drug sensitivity score [14]: 4.1 | drug sensitivity score [15]: 3.2

O=C(N/N=C/c1ccc(O)c(O)c1)c1cc2ccccc2cc1O [dynasore]
cell viability ([1]; 1 nM): 98.4% | cell viability ([1]; 10 nM): 95.8% | cell viability ([1]; 100 nM): 101% | cell viability ([1]; 1000 nM): 104% | cell viability ([1]; 10000 nM): 92.8% | cell viability ([2]; 1 nM): 108% | cell viability ([2]; 10 nM): 97.5% | cell viability ([2]; 100 nM): 104% | cell viability ([2]; 1000 nM): 103% | cell viability ([2]; 10000 nM): 97.4% | cell viability ([4]; 1 nM): 95.9% | cell viability ([4]; 10 nM): 102% | cell viability ([4]; 100 nM): 103% | cell viability ([4]; 1000 nM): 106% | cell viability ([4]; 10000 nM): 87.9% | cell viability ([5]; 1 nM): 103% | cell viability ([5]; 10 nM): 98.3% | cell viability ([5]; 100 nM): 102% | cell viability ([5]; 1000 nM): 103% | cell viability ([5]; 10000 nM): 97.2% | relative viability EC50 [6]: > 10 µM | relative viability EC50 [7]: > 10 µM | relative viability EC50 [9]: > 10 µM | relative viability EC50 [10]: > 10 µM | drug sensitivity score [11]: 0 | drug sensitivity score [12]: 0 | drug sensitivity score [14]: 0 | drug sensitivity score [15]: 0
